Reference: patent US7910362B2, “Reporter vector for use in evaluation of CYP1A2 induction” (Eisai R&D Management Co., Ltd., priority 2005, dated 2011)

How the values were obtained:
[1] = system: human CYP1A1; assay: Reporter assay in HepG2 cells: luciferase (Luc) activity, which reflects CYP1A1; details: reporter vectors A to J, N, O, T and U, 40 hours after addition, 3-MC 1 μM, BNF 10 μM
Procedure: Each of the obtained reporter vector comprising the transcriptional regulatory region of human CYP1A1 and CYP1A2 and reporter vectors comprising the transcriptional regulatory region partially deleted was transiently expressed in HepG2 cells (purchased from RIKEN) by using a transfection reagent (FuGene6, Roche), and 40 hours after the addition of a drug dissolved in DMSO or DMSO alone, the activity of a secreted alkaline phosphatase (SEAP), which reflects CYP1A2, and the activity of a luciferase (Luc), which reflects CYP1A1, were measured. LumiPhos 530 (Lumigen Inc.) was used as a substrate for the measurement of the SEAP activity. The Luc activity was measured by using Luciferase Assay System (Promega) (FIG. 3).
(§1) In the same manner as that in 4, each of the expression vectors A to J, N, O, T and U was transiently expressed in HepG2 cells by using the transfection reagent, and 40 hours after the addition of a drug dissolved in DMSO or DMSO alone, activity of a secreted alkaline phosphatase (SEAP), which reflects CYP1A2, and activity of a luciferase (Luc), which reflects CYP1A1, were measured.

[2] = system: transcriptional regulatory region of human CYP1A1 and CYP1A2; assay: Reporter assay in HepG2 cells with dual reporter vectors, reporter (SEAP/Luc) not distinguished in the statement; details: for enhancement of expression of the reporter: reporter vector T (comprises XRE E8, lacks 1535 to 2866); for induction of expression of the reporter: reporter vector U (does not comprise XRE E8); for reporter activities compared with DMSO: reporter vectors E1 to E5 (each one XRE deleted), E3 slightly lower; for enhancement of the expression of the reporter: reporter vectors comprising nucleotide numbers 1535 to 2867 in SEQ ID NO: 1 (XREs densely exist), HepG2
Procedure: (§2) Each of the obtained reporter vector comprising the transcriptional regulatory region of human CYP1A1 and CYP1A2 and reporter vectors comprising the transcriptional regulatory region partially deleted was transiently expressed in HepG2 cells (purchased from RIKEN) by using a transfection reagent (FuGene6, Roche), and 40 hours after the addition of a drug dissolved in DMSO or DMSO alone, the activity of a secreted alkaline phosphatase (SEAP), which reflects CYP1A2, and the activity of a luciferase (Luc), which reflects CYP1A1, were measured. LumiPhos 530 (Lumigen Inc.) was used as a substrate for the measurement of the SEAP activity.
A reporter assay was performed by using the obtained vectors.

[3] = system: human CYP1A2; assay: Reporter assay in HepG2 cells: secreted alkaline phosphatase (SEAP) activity, which reflects CYP1A2; format: cell-based; details: for reporter activity (SEAP) compared with DMSO: expression vector K, L or P (only region neighboring CYP1A2); for reporter activity (SEAP) compared with DMSO / reporter activity (SEAP): 40 hours; for reporter activity (SEAP): expression vector M; for SEAP activity compared with the group where DMSO alone was added: reporter vectors A to J, N, O, T and U, 40 hours after addition, 3-MC 1 μM, BNF 10 μM
Procedure: as §2
In the same manner as that in 4, the expression vectors K to M and P to S obtained above were transiently expressed in HepG2 cells by using the gene transfer reagent, and 40 hours after the addition of a drug dissolved in DMSO or DMSO alone, activity of a secreted alkaline phosphatase (SEAP) was measured (FIG. 5).
as §1

Compound | Luc activity compared with the group where DMSO alone was added [1] | enhancement of expression of the reporter [2] | induction of expression of the reporter [2] | reporter activities compared with DMSO [2] | enhancement of the expression of the reporter [2] | reporter activity (SEAP) compared with DMSO [3] | reporter activity (SEAP) [3] | SEAP activity compared with the group where DMSO alone was added [3]
Cc1ccc2cc3c(ccc4ccccc43)c3c2c1CC3 [3-MC, 3-methylcholanthrene] | increase in the SEAP activity and Luc activity was observed | strong enhancement of expression | did not show the induction | several folds to 10 or more folds higher | intense enhancement of the expression | ~1 fold | at the background level | increase in the SEAP activity and Luc activity was observed
O=c1cc(-c2ccccc2)oc2ccc3ccccc3c12 [BNF, β-naphthoflavone] | increase in the SEAP activity and Luc activity was observed | strong enhancement of expression | did not show the induction | several folds to 10 or more folds higher | intense enhancement of the expression | ~1 fold | at the background level | increase in the SEAP activity and Luc activity was observed
COc1ccc2[nH]c([S+]([O-])Cc3ncc(C)c(OC)c3C)nc2c1 (centres unmarked) [omeprazole] | – | – | – | several folds to 10 or more folds higher | – | – | – | –
